Laboratory results as given in patent US11680056B2, “MK2 inhibitors and uses thereof” (Xinthera, Inc., priority 2021, dated 2023).
Read-outs that look alike come from different tables or passages of the source.

Experiments:
p38a/MK2 = p38a/MK2 (Homo sapiens (Human), UniProt P49137+Q16539); assay: p38a/MK2 biochemical assay: activation of MK2 by p38, FITC-HSP27 peptide phosphorylation (IMAP FP); settings: 10-point 1:3 dilution, 60 pM active p38a, 1 nM inactive MK2, 10 μM ATP, 2 h incubation
p38a/PRAK = p38a/PRAK (Homo sapiens (Human), UniProt Q16539); assay: p38a/PRAK biochemical assay: activation of PRAK by p38, FITC-HSP27 peptide phosphorylation (IMAP FP); settings: 10-point 1:3 dilution, top dose 300 μM; 60 pM active p38a, 1 nM inactive PRAK, 10 μM ATP, 2 h incubation; read-out: p38a/PRAK Enzyme pIC50 (converted)
Sequence of p38a/PRAK (Q16539 whole entry): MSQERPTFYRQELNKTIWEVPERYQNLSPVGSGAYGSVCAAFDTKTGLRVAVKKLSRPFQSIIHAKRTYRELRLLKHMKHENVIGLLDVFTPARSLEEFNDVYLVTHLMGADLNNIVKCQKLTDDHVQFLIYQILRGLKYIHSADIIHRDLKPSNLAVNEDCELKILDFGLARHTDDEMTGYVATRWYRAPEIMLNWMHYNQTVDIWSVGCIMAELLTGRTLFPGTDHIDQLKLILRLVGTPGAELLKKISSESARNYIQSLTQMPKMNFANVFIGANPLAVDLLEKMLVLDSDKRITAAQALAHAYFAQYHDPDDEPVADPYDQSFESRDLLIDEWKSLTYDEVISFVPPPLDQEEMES
Outline: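 GST-tagged MK2 (F46–H400) and PRAK (M1–Q471), expressed in E. coli, activated by p38 and phosphorylate FITC-HSP27 peptide over 2 h with compound; readout by IMAP fluorescence polarisation (ex 485/em 528 nm). Ten-point 1:3 dilutions, top dose 1 μM for MK2 and 300 μM for PRAK. IC50 after vehicle normalisation; selectivity = IC50(PRAK)/IC50(MK2).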

[1] = top dose 10 μM, read-out: p38a/MK2 (10 μM) Enzyme pIC50 (converted)
[2] = top dose 1 μM, read-out: p38a/MK2 (1 μM) Enzyme pIC50 (converted)

Sequence of p38a/MK2 (P49137 46-400): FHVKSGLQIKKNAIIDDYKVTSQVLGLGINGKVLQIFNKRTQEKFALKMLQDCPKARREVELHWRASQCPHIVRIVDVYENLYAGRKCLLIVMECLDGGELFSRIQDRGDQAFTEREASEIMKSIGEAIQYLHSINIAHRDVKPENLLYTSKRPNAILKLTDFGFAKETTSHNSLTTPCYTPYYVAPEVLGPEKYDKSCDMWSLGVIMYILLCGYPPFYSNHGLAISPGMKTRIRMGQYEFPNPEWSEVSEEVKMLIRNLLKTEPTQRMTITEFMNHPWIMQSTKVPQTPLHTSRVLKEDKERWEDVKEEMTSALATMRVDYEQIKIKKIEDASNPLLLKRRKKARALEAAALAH
Sequence of p38a/MK2 (Q16539 whole entry): as the sequence (Q16539 whole entry) above

Row | IC50 (p38a/MK2; [1]) | IC50 (p38a/PRAK) | IC50 (p38a/MK2; [2]) | SMILES | p38a/MK2 (10 μM) Enzyme pIC50 (p38a/MK2; top dose 10 μM)
1 | – | 2510 nM | 5.01 nM | Cc1cnc(-n2ccc(C(C)(C)CO)n2)cc1-n1c(C)cc(OCc2ncc(F)cc2F)c(Cl)c1=O (single isomer, unassigned) [Example 37A, rel-3-chloro-4-[(3,5-difluoropyridin-2-yl)methoxy]-2′-[3-(1-hydroxy-2-methylpropan-2-yl)pyrazol-1-yl]-5′,6-dimethyl-[1,4′-bipyridin]-2-one] | –
2 | – | > 316000 nM | > 1000 nM | Cc1cnc(-n2ccc(C(C)(C)CO)n2)cc1-n1c(C)cc(OCc2ncc(F)cc2F)c(Cl)c1=O (single isomer, unassigned) [Example 37B, rel-3-chloro-4-[(3,5-difluoropyridin-2-yl)methoxy]-2′-[3-(1-hydroxy-2-methylpropan-2-yl)pyrazol-1-yl]-5′,6-dimethyl-[1,4′-bipyridin]-2-one] | –
3 | – | 31600 nM | 100 nM | Cc1cnc(-c2ccnc(C(C)(C)O)c2)cc1-n1c(C)cc(OCc2ncc(F)cc2F)c(Cl)c1=O (single isomer, unassigned) [Example 38A, rel-3-chloro-4-[(3,5-difluoropyridin-2-yl)methoxy]-2′-[2-(2-hydroxypropan-2-yl)pyridin-4-yl]-5′,6-dimethyl-[1,4′-bipyridin]-2-one] | –
4 | – | > 316000 nM | > 1000 nM | Cc1cnc(-c2ccnc(C(C)(C)O)c2)cc1-n1c(C)cc(OCc2ncc(F)cc2F)c(Cl)c1=O (single isomer, unassigned) [Example 38B, rel-3-chloro-4-[(3,5-difluoropyridin-2-yl)methoxy]-2′-[2-(2-hydroxypropan-2-yl)pyridin-4-yl]-5′,6-dimethyl-[1,4′-bipyridin]-2-one] | –
5 | – | 12600 nM | 10 nM | Cc1cnc(-c2ccnc(C3(O)CCOCC3)n2)cc1-n1c(C)cc(OCc2ncc(F)cc2F)c(Cl)c1=O (single isomer, unassigned) [Example 39A, rel-3-chloro-4-((3,5-difluoropyridin-2-yl)methoxy)-2′-(2-(4-hydroxytetrahydro-2H-pyran-4-yl)pyrimidin-4-yl)-5′,6-dimethyl-2H-[1,4′-bipyridin]-2-one] | –
6 | – | > 316000 nM | > 1000 nM | Cc1cnc(-c2ccnc(C3(O)CCOCC3)n2)cc1-n1c(C)cc(OCc2ncc(F)cc2F)c(Cl)c1=O (single isomer, unassigned) [Example 39B, rel-3-chloro-4-((3,5-difluoropyridin-2-yl)methoxy)-2′-(2-(4-hydroxytetrahydro-2H-pyran-4-yl)pyrimidin-4-yl)-5′,6-dimethyl-2H-[1,4′-bipyridin]-2-one] | –
7 | – | 15800 nM | 126 nM | Cc1cc(OCc2ncc(F)cc2F)c(Cl)c(=O)n1-c1cc(-c2ccnc(C(C)(C)O)n2)ncc1C1CC1 (single isomer, unassigned) [Example 40A, rel-3-chloro-5′-cyclopropyl-4-[(3,5-difluoropyridin-2-yl)methoxy]-2′-[2-(2-hydroxypropan-2-yl)pyrimidin-4-yl]-6-methyl-[1,4′-bipyridin]-2-one] | –
8 | – | > 316000 nM | > 1000 nM | Cc1cc(OCc2ncc(F)cc2F)c(Cl)c(=O)n1-c1cc(-c2ccnc(C(C)(C)O)n2)ncc1C1CC1 (single isomer, unassigned) [Example 40B, rel-3-chloro-5′-cyclopropyl-4-[(3,5-difluoropyridin-2-yl)methoxy]-2′-[2-(2-hydroxypropan-2-yl)pyrimidin-4-yl]-6-methyl-[1,4′-bipyridin]-2-one] | –

The next lines start with the molecule.

Row | SMILES | IC50 (p38a/MK2; [1]) | IC50 (p38a/PRAK) | IC50 (p38a/MK2; [2]) | p38a/MK2 (10 μM) Enzyme pIC50 (p38a/MK2; top dose 10 μM)
9 | Cc1cnc(-c2ccc3c(n2)C(C)(O)CC3)cc1-n1c(C)cc(OCc2ncc(F)cc2F)c(Cl)c1=O (single isomer, unassigned) [Example 32B] | 1000 nM | > 316000 nM | – | –
10 | Cc1cnc(-c2ccc3c(n2)C(C)(O)CC3)cc1-n1c(C)cc(OCc2ncc(F)cc2F)c(Cl)c1=O (single isomer, unassigned) [Example 32C] | 63.1 nM | 6310 nM | – | –
11 | Cc1cnc(-c2ccc3c(n2)C(C)(O)CC3)cc1-n1c(C)cc(OCc2ncc(F)cc2F)c(Cl)c1=O (single isomer, unassigned) [Example 32D] | 1260 nM | > 316000 nM | – | –
12 | Cc1sc(-c2ccnc(C(C)(C)O)n2)cc1-n1c(C)cc(OCc2ncc(F)cc2F)c(Cl)c1=O (single isomer, unassigned) [Example 33A, 3-chloro-4-[(3,5-difluoropyridin-2-yl)methoxy]-1-{5-[2-(2-hydroxypropan-2-yl)pyrimidin-4-yl]-2-methylthiophen-3-yl}-6-methylpyridin-2-one] | – | 5010 nM | 25.1 nM | –
13 | Cc1sc(-c2ccnc(C(C)(C)O)n2)cc1-n1c(C)cc(OCc2ncc(F)cc2F)c(Cl)c1=O (single isomer, unassigned) [Example 33B, 3-chloro-4-[(3,5-difluoropyridin-2-yl)methoxy]-1-{5-[2-(2-hydroxypropan-2-yl)pyrimidin-4-yl]-2-methylthiophen-3-yl}-6-methylpyridin-2-one] | – | 50100 nM | – | 6.5
14 | Cc1cnc(-c2cccc([C@@H](O)CO)n2)cc1-n1c(C)cc(OCc2ncc(F)cc2F)c(Cl)c1=O (single isomer, unassigned) [Example 34A, rel-3-chloro-4-[(3,5-difluoropyridin-2-yl)methoxy]-2′-[6-(1,2-dihydroxyethyl)pyridin-2-yl]-5′,6-dimethyl-[1,4′-bipyridin]-2-one] | – | 10000 nM | 20 nM | –
15 | Cc1cnc(-c2cccc([C@H](O)CO)n2)cc1-n1c(C)cc(OCc2ncc(F)cc2F)c(Cl)c1=O (single isomer, unassigned) [Example 34B, rel-3-chloro-4-[(3,5-difluoropyridin-2-yl)methoxy]-2′-[6-(1,2-dihydroxyethyl)pyridin-2-yl]-5′,6-dimethyl-[1,4′-bipyridin]-2-one] | 12.6 nM | 6310 nM | – | –
16 | Cc1cnc(-c2cccc([C@H](O)CO)n2)cc1-n1c(C)cc(OCc2ncc(F)cc2F)c(Cl)c1=O (single isomer, unassigned) [Example 34C, rel-3-chloro-4-[(3,5-difluoropyridin-2-yl)methoxy]-2′-[6-(1,2-dihydroxyethyl)pyridin-2-yl]-5′,6-dimethyl-[1,4′-bipyridin]-2-one] | 2000 nM | > 316000 nM | – | –
17 | Cc1cnc(-c2cccc([C@@H](O)CO)n2)cc1-n1c(C)cc(OCc2ncc(F)cc2F)c(Cl)c1=O (single isomer, unassigned) [Example 34D, rel-3-chloro-4-[(3,5-difluoropyridin-2-yl)methoxy]-2′-[6-(1,2-dihydroxyethyl)pyridin-2-yl]-5′,6-dimethyl-[1,4′-bipyridin]-2-one] | 3160 nM | > 316000 nM | – | –
18 | Cc1cnc(-c2ccnc(C(O)C3CC3)n2)cc1-n1c(C)cc(OCc2ncc(F)cc2F)c(Cl)c1=O (single isomer, unassigned) [Example 35A, rel-3-chloro-2′-{2-[cyclopropyl(hydroxy)methyl]pyrimidin-4-yl}-4-[(3,5-difluoropyridin-2-yl)methoxy]-5′,6-dimethyl-[1,4′-bipyridin]-2-one] | – | 10000 nM | 50.1 nM | –
19 | Cc1cnc(-c2ccnc(C(O)C3CC3)n2)cc1-n1c(C)cc(OCc2ncc(F)cc2F)c(Cl)c1=O (single isomer, unassigned) [Example 35B, rel-3-chloro-2′-{2-[cyclopropyl(hydroxy)methyl]pyrimidin-4-yl}-4-[(3,5-difluoropyridin-2-yl)methoxy]-5′,6-dimethyl-[1,4′-bipyridin]-2-one] | – | 5010 nM | 15.8 nM | –
20 | Cc1cnc(-c2ccnc(C(O)C3CC3)n2)cc1-n1c(C)cc(OCc2ncc(F)cc2F)c(Cl)c1=O (single isomer, unassigned) [Example 35C, rel-3-chloro-2′-{2-[cyclopropyl(hydroxy)methyl]pyrimidin-4-yl}-4-[(3,5-difluoropyridin-2-yl)methoxy]-5′,6-dimethyl-[1,4′-bipyridin]-2-one] | – | > 316000 nM | > 1000 nM | –
21 | Cc1cnc(-c2ccnc([C@@H](O)C3CC3)n2)cc1-n1c(C)cc(OCc2ncc(F)cc2F)c(Cl)c1=O (single isomer, unassigned) [Example 35D, rel-3-chloro-2′-{2-[cyclopropyl(hydroxy)methyl]pyrimidin-4-yl}-4-[(3,5-difluoropyridin-2-yl)methoxy]-5′,6-dimethyl-[1,4′-bipyridin]-2-one] | – | > 316000 nM | > 1000 nM | –
22 | Cc1cnc(-c2cccc([C@@](C)(O)CO)n2)cc1-n1c(C)cc(OCc2ncc(F)cc2F)c(Cl)c1=O (single isomer, unassigned) [Example 36B, rel-3-chloro-4-[(3,5-difluoropyridin-2-yl)methoxy]-2′-[6-(1,2-dihydroxypropan-2-yl)pyridin-2-yl]-5′,6-dimethyl-[1,4′-bipyridin]-2-one] | – | 15800 nM | 6.31 nM | –
23 | Cc1cnc(-c2cccc(C(C)(O)CO)n2)cc1-n1c(C)cc(OCc2ncc(F)cc2F)c(Cl)c1=O (single isomer, unassigned) [Example 36C, rel-3-chloro-4-[(3,5-difluoropyridin-2-yl)methoxy]-2′-[6-(1,2-dihydroxypropan-2-yl)pyridin-2-yl]-5′,6-dimethyl-[1,4′-bipyridin]-2-one] | – | > 316000 nM | > 1000 nM | –
